Data reported in patent US7811797B2, “α-isomaltosylglucosaccharide-forming enzyme, process and uses of the same” (Kabushiki Kaisha Hayashibara Seibutsu Kagaku Kenkyujo, priority 2000, dated 2010).

Legend:
Design in all cases: key: −: it showed no change; +: it showed a slight reduction of the color spot of the substrate and the formation of other reaction product; ++: it showed a high reduction of the color spot of the substrate and the formation of other reaction product; +++: it showed a substantial disappearance of the substrate spot and the formation of other reaction product
[1] = system: α-isomaltosylglucosaccharide-forming enzyme; test: Action on saccharides (substrates), Enzyme of Strain C9; assay type: biochemical, Bacillus globisporus C9; conditions: two units/g substrate, substrate 2% (w/v), 30° C., pH 6.0, 24 hours, TLC
Method: (§1) It was tested whether saccharides can be used as substrates for the α-isomaltosylglucosaccharide-forming enzyme. For the purpose, a solution of maltose, maltotriose, maltotetraose, maltopentaose, maltohexaose, maltoheptaose, isomaltose, isomaltotriose, panose, isopanose, trehalose, kojibiose, nigerose, neotrehalose, cellobiose, gentibiose, maltitol, maltotriitol, lactose, sucrose, erlose, selaginose, maltosyl glucoside, or isomaltosyl glucoside was prepared.
(§2) To each of the above solutions was added two units/g substrate of a purified specimen of α-isomaltosylglucosaccharide-forming enzyme from either Bacillus globisporus C9 obtained by the method in Experiment 4-2, Bacillus globisporus C11 obtained by the method in Experiment 7-2, Bacillus globisporus N75 obtained by the method in Experiment 11-2, or Arthrobacter globiformis A19 obtained by the method in Experiment 15-2, and the resulting each solution was adjusted to give a substrate concentration of 2% (w/v) and incubated at 30° C. and pH 6.0, except for using pH 8.4 for the enzyme from Arthrobacter globiformis A19, for 24 hours. The enzyme solutions before and after the enzymatic reactions were respectively analyzed on TLC disclosed in Experiment 1 to confirm whether the enzymes acted on these substrates.

[2] = system: α-isomaltosylglucosaccharide-forming enzyme; test: Action on saccharides (substrates), Enzyme of Strain C11; assay type: biochemical, Bacillus globisporus C11; conditions: two units/g substrate, substrate 2% (w/v), 30° C., pH 6.0, 24 hours, TLC
Method: as §1, §2

[3] = system: α-isomaltosylglucosaccharide-forming enzyme; test: Action on saccharides (substrates), Enzyme of Strain N75; assay type: biochemical, Bacillus globisporus N75; conditions: two units/g substrate, substrate 2% (w/v), 30° C., pH 6.0, 24 hours, TLC
Method: as §1, §2

[4] = system: α-isomaltosylglucosaccharide-forming enzyme; test: Action on saccharides (substrates), Enzyme of Strain A19; assay type: biochemical, Arthrobacter globiformis A19; conditions: two units/g substrate, substrate 2% (w/v), 30° C., pH 8.4, 24 hours, TLC
Method: as §1, §2

Row | Molecule | Enzymatic action, Enzyme of Strain C9 [1] | Enzymatic action, Enzyme of Strain C11 [2] | Enzymatic action, Enzyme of Strain N75 [3] | Enzymatic action, Enzyme of Strain A19 [4]
1 | OC[C@H]1O[C@H](OC[C@H]2O[C@H](O[C@H]3[C@H](O)[C@@H](O)C(O)O[C@@H]3CO)[C@H](O)[C@@H](O)[C@@H]2O)[C@H](O)[C@@H](O)[C@@H]1O (stereo partly shown) [Panose] | − | − | − | −
2 | Maltotriose | ++ | ++ | ++ | ++
3 | OC[C@H]1O[C@@H](O[C@H]2O[C@H](CO)[C@@H](O)[C@H](O)[C@H]2O)[C@H](O)[C@@H](O)[C@@H]1O [Neotrehalose] | + | + | + | +
4 | Maltopentaose | +++ | +++ | +++ | +++
5 | OC[C@H]1O[C@H](O[C@H]2[C@H](O)[C@@H](CO)OC(O)[C@@H]2O)[C@H](O)[C@@H](O)[C@@H]1O (stereo partly shown) [Nigerose] | + | + | + | +
6 | OC[C@H]1O[C@H](O[C@H]2O[C@H](CO)[C@@H](O)[C@H](O)[C@H]2O[C@H]2O[C@H](CO)[C@@H](O)[C@H](O)[C@H]2O)[C@H](O)[C@@H](O)[C@@H]1O [Selaginose] | − | − | − | −
7 | OC[C@H]1O[C@H](O[C@H]2[C@H](O)[C@@H](O)[C@@H](O[C@H]3[C@H](O)[C@@H](O)[C@@H](O[C@H]4[C@H](O)[C@@H](O)C(O)O[C@@H]4CO)O[C@@H]3CO)O[C@@H]2CO)[C@H](O)[C@@H](O)[C@@H]1O (stereo partly shown) [Maltotetraose] | +++ | +++ | +++ | +++
8 | Maltohexaose | +++ | +++ | +++ | +++
9 | OC[C@H]1O[C@@](CO)(O[C@H]2O[C@H](CO)[C@@H](O[C@H]3O[C@H](CO)[C@@H](O)[C@H](O)[C@H]3O)[C@H](O)[C@H]2O)[C@@H](O)[C@@H]1O [Erlose] | + | + | + | +
10 | OC[C@H]1O[C@H](O[C@H]2[C@H](O)[C@@H](O)[C@H](O)O[C@@H]2CO)[C@H](O)[C@@H](O)[C@@H]1O [Maltose] | + | + | + | +
11 | OC[C@H]1O[C@H](O[C@H]2O[C@H](CO)[C@@H](O[C@H]3O[C@H](CO)[C@@H](O)[C@H](O)[C@H]3O)[C@H](O)[C@H]2O)[C@H](O)[C@@H](O)[C@@H]1O [Maltosyl glucoside] | ++ | ++ | ++ | ++
12 | OC[C@H]1O[C@H](O[C@H]2C(O)O[C@H](CO)[C@@H](O)[C@@H]2O)[C@H](O)[C@@H](O)[C@@H]1O (stereo partly shown) [Kojibiose] | + | + | + | +
13 | Maltoheptaose | +++ | +++ | +++ | +++
14 | OC[C@@H](O)[C@@H](O[C@H]1O[C@H](CO)[C@@H](O[C@H]2O[C@H](CO)[C@@H](O)[C@H](O)[C@H]2O)[C@H](O)[C@H]1O)[C@H](O)[C@@H](O)CO [Maltotriitol] | + | + | + | +
15 | OC[C@H]1O[C@H](O[C@H]2[C@H](O)[C@@H](O)[C@@H](OC[C@H]3OC(O)[C@H](O)[C@@H](O)[C@@H]3O)O[C@@H]2CO)[C@H](O)[C@@H](O)[C@@H]1O (stereo partly shown) [Isopanose] | ++ | ++ | ++ | ++
16 | Isomaltosyl glucoside | − | − | − | −
